Laboratory results: US20090202499A1, “Human Telomerase Reverse Transcriptase Peptides” (priority 2006, published 2009)
Entries after “also recorded” stand apart in the source; their conditions may differ. Read-outs that look alike come from different tables or passages of the source.

Legend:
[1] = biological target: B*0702 (Homo sapiens, UniProt P01889); experiment: competition solid-phase radioimmunoassay on purified HLA molecule; format: binding
Method: (§1) Supertype analysis. Quantitative assays to measure the binding affinity of peptides to purified HLA B7-supertype molecules (B*0702, B*3501, B*5101, B*5301, B*5401) and B*0801 were based on the inhibition of binding of a radiolabeled standard peptide, and were performed as previously described (22, 35). Briefly, 1-10 nM of radiolabeled peptide was co-incubated at room temperature with 1 microM to 1 nM of purified MHC in the presence of 1-3 μM human beta2-microglobulin (Scripps Laboratories, San Diego, Calif.) and a cocktail of protease inhibitors. After a two-day incubation, binding of the radiolabeled peptide to the corresponding MHC class I molecule was determined by capturing MHC/peptide complexes on Greiner Lumitrac 600 microplates (Greiner Bio-one, Longwood, Fla.) coated with the W6/32 antibody, and measuring bound counts per minute (cpm) using the TopCount microscintillation counter (Packard Instrument Co.). […] Under the conditions utilized, where [label]<[MHC] and IC50≧[MHC], the measured IC50 values are reasonable approximations of the true Kd values.
Next, we assessed the actual binding avidity for HLA-B7 (HLA-B*0702). Two independent assays were used: binding stabilization assay on T2-B7 cells by flow cytometry (12) and a competitive solid-phase radioimmunoassay on immobilized purified HLA-B7 molecule (35).

[2] = biological target: B*5101 (Homo sapiens, UniProt P01889, A329T/A93T/A95T/C349S/D138N/D201E/D98Y/E187L/E204Q/E69T/G107R/I218V/K202T/L105A/L119W/N104I/Q94N/R106L/R155S/R180L/S101N/S121T/S35A/S48A/V306I/V36M/Y195H/Y91F); experiment: HLA-B7 supertype binding assay
Method: as §1
(§2) HLA molecules are highly polymorphic posing problems to the identification of peptides, which could be used to cover the totality of the human population. However, HLA alleles can be clustered into a relatively small number of groups termed supertypes (21). The HLA-B7 supertype includes ten alleles (22). Here, we decided to test the selected hTRT peptides for their ability to bind five out of ten members of the HLA-B7 supertype (B*3501, B*5101, B*5301, B*5401) and B*0801. The B*0801 allele shares binding features with B*0702, although is not officially part of the HLA-B7 supertype. This analysis had the purpose to further narrow the selection of putative HLA-B7 immunogens based on supertype binding (Table V).

[3] = biological target: B*5301 (Homo sapiens, UniProt P01889, A329T/A93T/A95T/C349S/D201E/D98Y/E176V/E187L/E204Q/E69T/G107R/I218V/K202T/L105A/L119I/N104I/Q94N/R106L/R155S/R180L/S101N/S121R/S35A/S48A/T118I/V127L/V306I/V36M/Y140S/Y91F); experiment: HLA-B7 supertype binding assay
Method: as §1, §2

[4] = biological target: B*3501 (Homo sapiens, UniProt P01889, A329T/A93T/A95T/C349S/D201E/D98Y/E176V/E187L/E204Q/E69T/I218V/K202T/L119I/Q94N/R155S/R180L/S121R/S35A/S48A/T118I/V127L/V306I/V36M/Y140S/Y91F); experiment: HLA-B7 supertype binding assay
Method: as §1, §2

[5] = biological target: B*5401 (Homo sapiens, UniProt P01889, A329T/C349S/D138N/D201E/E176V/E187T/E204Q/E69G/I76V/K202T/L119W/R155S/R180L/S121T/S35A/S48A/V127L/V306I/V36M/Y140L); experiment: HLA-B7 supertype binding assay
Method: as §1, §2

[6] = tested on: RMA-B7 cells pulsed with the homologous hTRT peptide; experiment: peptide immunization of HLA-B7 Tg mice, 51Cr-release assay; format: in vivo; details: 100 micrograms peptide + HBV helper peptide in IFA, s.c.
Method: FIG. 1. […] HLA-B7 Tg mice were vaccinated with 100 micrograms of individual hTRT peptide together with 120 micrograms of HBV helper peptide in IFA. Ten days after immunization, spleen lymphocytes were restimulated in vitro with peptide and fresh, irradiated syngeneic APC. Restimulations were performed on a weekly basis. A standard 4 hour ^51Cr-release assay was performed on day 5 after in vitro restimulation, using RMA-B7 cells pulsed with the homologous hTRT peptide as targets and an E:T ratio of 25:1. Results are expressed as the mean specific lysis plus or minus standard deviation of responder mice only, whose number is indicated in each panel. Tests were run in duplicate.
In vivo immunization procedures. Peptide immunization. HLA B7 transgenic mice (28) were injected s.c. at the base of the tail with 100 micro-grams of hTRT peptides along with 120 micro-grams of I-A^b MHC Class II helper peptide 128-140 of the hepatitis B virus core protein in incomplete Freunds' adjuvant as described previously (12). Long-term CTL lines were maintained in culture by weekly restimulation with irradiated, peptide-pulsed syngeneic spleen cells in RPMI-1640 medium containing 10% heat inactivated fetal bovine serum, 2 mM glutamine, 5×10^−5 M 2-Mercaptoethanol, 50 micro-grams/ml streptomycin, and 50 micro-grams/ml penicillin (complete medium) and supplemented with 40 IU/ml of recombinant human IL-2.
CTL assays. Both murine and human CTL were detected by the ^51Cr release assay performed as previously described (14). Briefly, HLA-B7^+ antigen presenting cells (RMA-B7 or T2-B7 cells) were labeled for 1 hr with 100 micro-Ci of Na2^51CrO4 (Perkin Elmer). Washed cells (5×10^3 per well) were mixed in 96-well plates in 100 micro-liters/well with each peptide (at 10 micro-grams/ml or lower concentration) and 100 micro-liters of the CTL effector cells (at various E:T ratio) in RPMI medium. The plates were incubated for 4-5 hrs at 37° C. (5% CO2). The supernatants were harvested and counted on a Wallac 1470 Wizard Gamma counter. The percent lysis was calculated as 100 (cpmexp−cpmspont)/(cpmmax−cpmspont).
In order to assign immunogenicity to each of the peptides and correlate this property with the binding characteristics and the scores of the predictive algorithms, we immunized HLA-B7 Tg mice (28). Ten to eleven days after immunization mice were sacrificed, the spleen harvested and splenocytes put in culture with LPS/Dextran activated APC, and tested in a 4 hour ^51Cr-release assay. As shown, only five out of seven peptides yielded a meaningful, specific CTL response even after a third cycle of in vitro restimulation (FIG. 1). All immunogenic peptides induced a response from the first in vitro restimulation and this response increased upon subsequent rounds of antigen restimulation. As noted the lysis of peptide-pulsed RMA-B7 target cells increased at each round of in vitro restimulation. No lysis occurred on RMA-B7 cells not pulsed with peptide. Thus, the in vivo results together with the actual measure of the avidity of HLA-B7 binding avidity distinguished two groups of 9mer hTRT peptides.

[7] = biological target: B*0801 (Homo sapiens, UniProt P01889, A93T/A95T/D138N/E176V/E187T/K202T/Q94N/R180D/S35A/V36M/Y33D/Y91F); experiment: biochemical

Structure (SMILES): CSCC[C@H](NC(=O)[C@H](CC(N)=O)NC(=O)[C@H](CCCNC(=N)N)NC(=O)CNC(=O)[C@H](C)N)C(=O)N[C@@H](CCCNC(=N)N)C(=O)N[C@@H](CCCNC(=N)N)C(=O)N[C@@H](CCCCN)C(=O)N[C@@H](CC(C)C)C(=O)O [p966]
- IC50 [1]: > 50000 nM
- IC50 ([1]; read-out: HLA class I binding capacity (IC50 nM) B*0702, Table V, purified MHC, radiolabeled standard peptide): > 50000 nM
- IC50 [2]: > 50 µM
- IC50 [3]: > 50 µM
- IC50 [4]: > 50 µM
- IC50 [5]: 34.1 µM
- immunogenicity in vivo, CTL response after peptide immunization (in words) [6]: non-immunogenic; also recorded: poor immunogenicity; also recorded: repeated negative results
- IC50 [7]: > 50 µM
